“And” between values parts separate entries of the source, which are not always exact repeats. Equal entries are not always repeated. Inconclusive results and toxic doses are left out.
Test system: P388 leukemia ip, CD2F1 mice, survival T/C
Assay: NCI In Vivo Anticancer Drug Screen. Data for tumor model P388 Leukemia (intraperitoneal) in CD2F1 (CDF1) mice
Settings: endpoint: median survival time, higher = longer survival
How it was run: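 Mice carrying the transplanted tumor received test compound or vehicle. Survival was recorded in each group, and the value is the treated-group measurement divided by that of the vehicle-treated control group.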

In the case of `CC(C)CCCCCCCCCCCCC(=O)NCC(=O)NC1C(O)C(O)C(Nc2ncnc3nc[nH]c23)OC1C(O)CO` (configuration not stated), the T/C (dose: 0.06 mg/kg/injection, schedule: Q01DX009 (ip), vehicle: Klucel (hydroxypropylcellulose) (HPC)) is reported as 100 % of control, the T/C (dose: 0.13 mg/kg/injection, schedule: Q01DX009 (ip), vehicle: Klucel (hydroxypropylcellulose) (HPC)) is reported as 100 % of control and the T/C (dose: 0.25 mg/kg/injection, schedule: Q01DX009 (ip), vehicle: Klucel (hydroxypropylcellulose) (HPC)) is reported as 100 % of control. The T/C (dose: 0.25 mg/kg/injection, schedule: Q01DX009 (ip), vehicle: distilled water + alcohol) was 154 % of control, the T/C (dose: 0.25 mg/kg/injection, schedule: Q01DX009 (ip), vehicle: saline with Tween-80) was 158 % of control and the T/C (dose: 0.25 mg/kg/injection, schedule: Q03HX008 (ip), vehicle: Klucel (hydroxypropylcellulose) (HPC)) was 100 % of control. The T/C (dose: 0.25 mg/kg/injection, schedule: Q03HX016 (ip), vehicle: Klucel (hydroxypropylcellulose) (HPC)) was 100 % of control, the T/C (dose: 0.25 mg/kg/injection, schedule: Q03HX024 (ip), vehicle: Klucel (hydroxypropylcellulose) (HPC)) was 95 % of control and the T/C (dose: 0.5 mg/kg/injection, schedule: Q01DX009 (ip), vehicle: Klucel (hydroxypropylcellulose) (HPC)) was 100 % of control. For the same molecule, the T/C (dose: 0.5 mg/kg/injection, schedule: Q01DX009 (ip), vehicle: distilled water + Tween-80) was 154 % of control, the T/C (dose: 0.5 mg/kg/injection, schedule: Q01DX009 (ip), vehicle: saline with Tween-80) was 151 % of control and the T/C (dose: 0.5 mg/kg/injection, schedule: Q01DX009 (oral), vehicle: Klucel (hydroxypropylcellulose) (HPC)) was 100 % of control. For the same molecule, the T/C (dose: 0.5 mg/kg/injection, schedule: Q03HX008 (ip), vehicle: Klucel (hydroxypropylcellulose) (HPC)) was 100 % of control, the T/C (dose: 0.5 mg/kg/injection, schedule: Q03HX016 (ip), vehicle: Klucel (hydroxypropylcellulose) (HPC)) was 100 % of control and the T/C (dose: 0.5 mg/kg/injection, schedule: Q03HX024 (ip), vehicle: Klucel (hydroxypropylcellulose) (HPC)) was 90 % of control. For the same molecule, the T/C (dose: 1.0 mg/kg/injection, schedule: Q01DX009 (ip), vehicle: Klucel (hydroxypropylcellulose) (HPC)) was 100 % of control, the T/C (dose: 1.0 mg/kg/injection, schedule: Q01DX009 (ip), vehicle: distilled water + alcohol) was 110 % of control and the T/C (dose: 1.0 mg/kg/injection, schedule: Q01DX009 (ip), vehicle: saline with Tween-80) was 101 % of control and 109 % of control. The T/C (dose: 1.0 mg/kg/injection, schedule: Q01DX009 (oral), vehicle: Klucel (hydroxypropylcellulose) (HPC)) was 100 % of control, the T/C (dose: 1.0 mg/kg/injection, schedule: Q03HX008 (ip), vehicle: Klucel (hydroxypropylcellulose) (HPC)) was 100 % of control and the T/C (dose: 1.0 mg/kg/injection, schedule: Q03HX016 (ip), vehicle: Klucel (hydroxypropylcellulose) (HPC)) was 100 % of control. For the same molecule, the T/C (dose: 1.0 mg/kg/injection, schedule: Q03HX024 (ip), vehicle: Klucel (hydroxypropylcellulose) (HPC)) was 95 % of control, the T/C (dose: 2.0 mg/kg/injection, schedule: Q01DX001 (ip), vehicle: Klucel (hydroxypropylcellulose) (HPC)) was 100 % of control and the T/C (dose: 2.0 mg/kg/injection, schedule: Q01DX009 (ip), vehicle: Klucel (hydroxypropylcellulose) (HPC)) was 151 % of control. The T/C (dose: 2.0 mg/kg/injection, schedule: Q01DX009 (ip), vehicle: saline with Tween-80) was 89 % of control, the T/C (dose: 2.0 mg/kg/injection, schedule: Q01DX009 (oral), vehicle: Klucel (hydroxypropylcellulose) (HPC)) was 100 % of control and the T/C (dose: 2.0 mg/kg/injection, schedule: Q03HX008 (ip), vehicle: Klucel (hydroxypropylcellulose) (HPC)) was 100 % of control. The T/C (dose: 2.0 mg/kg/injection, schedule: Q03HX016 (ip), vehicle: Klucel (hydroxypropylcellulose) (HPC)) was 100 % of control, the T/C (dose: 2.0 mg/kg/injection, schedule: Q03HX024 (ip), vehicle: Klucel (hydroxypropylcellulose) (HPC)) was 95 % of control and the T/C (dose: 2.0 mg/kg/injection, schedule: Q04DX003 (ip), vehicle: Klucel (hydroxypropylcellulose) (HPC)) was 100 % of control. For the same molecule, the T/C (dose: 2.0 mg/kg/injection, schedule: Q08DX002 (ip), vehicle: Klucel (hydroxypropylcellulose) (HPC)) was 100 % of control, the T/C (dose: 4.0 mg/kg/injection, schedule: Q01DX001 (ip), vehicle: Klucel (hydroxypropylcellulose) (HPC)) was 100 % of control and the T/C (dose: 4.0 mg/kg/injection, schedule: Q01DX009 (oral), vehicle: Klucel (hydroxypropylcellulose) (HPC)) was 100 % of control. The T/C (dose: 4.0 mg/kg/injection, schedule: Q04DX003 (ip), vehicle: Klucel (hydroxypropylcellulose) (HPC)) was 100 % of control, the T/C (dose: 4.0 mg/kg/injection, schedule: Q08DX002 (ip), vehicle: Klucel (hydroxypropylcellulose) (HPC)) was 100 % of control and the T/C (dose: 8.0 mg/kg/injection, schedule: Q01DX001 (ip), vehicle: Klucel (hydroxypropylcellulose) (HPC)) was 100 % of control. The T/C (dose: 8.0 mg/kg/injection, schedule: Q04DX003 (ip), vehicle: Klucel (hydroxypropylcellulose) (HPC)) was 100 % of control, the T/C (dose: 8.0 mg/kg/injection, schedule: Q08DX002 (ip), vehicle: Klucel (hydroxypropylcellulose) (HPC)) was 100 % of control and the T/C (dose: 16.0 mg/kg/injection, schedule: Q01DX001 (ip), vehicle: Klucel (hydroxypropylcellulose) (HPC)) was 100 % of control. For the same molecule, the T/C (dose: 16.0 mg/kg/injection, schedule: Q01DX001 (oral), vehicle: Klucel (hydroxypropylcellulose) (HPC)) was 100 % of control, the T/C (dose: 16.0 mg/kg/injection, schedule: Q04DX003 (ip), vehicle: Klucel (hydroxypropylcellulose) (HPC)) was 100 % of control and the T/C (dose: 16.0 mg/kg/injection, schedule: Q08DX002 (ip), vehicle: Klucel (hydroxypropylcellulose) (HPC)) was 104 % of control. The T/C (dose: 32.0 mg/kg/injection, schedule: Q01DX001 (oral), vehicle: Klucel (hydroxypropylcellulose) (HPC)) was 100 % of control, the T/C (dose: 64.0 mg/kg/injection, schedule: Q01DX001 (oral), vehicle: Klucel (hydroxypropylcellulose) (HPC)) was 100 % of control and the T/C (dose: 128.0 mg/kg/injection, schedule: Q01DX001 (oral), vehicle: Klucel (hydroxypropylcellulose) (HPC)) was 100 % of control.
For `CC(N)C(O)C(C)C(=O)O` (configuration not stated), the T/C (dose: 12.5 mg/kg/injection, schedule: Q01DX009 (ip), vehicle: water) was 111 % of control, the T/C (dose: 25.0 mg/kg/injection, schedule: Q01DX009 (ip), vehicle: water) was 107 % of control and the T/C (dose: 50.0 mg/kg/injection, schedule: Q01DX009 (ip), vehicle: water) was 107 % of control. For the same molecule, the T/C (dose: 100.0 mg/kg/injection, schedule: Q01DX009 (ip), vehicle: water) was 98 % of control and the T/C (dose: 200.0 mg/kg/injection, schedule: Q01DX009 (ip), vehicle: water) was 102 % of control.
`CCOc1ccc(OCC)c(NC(=O)c2ccccc2)c1` was tested, and the T/C (dose: 100.0 mg/kg/injection, schedule: Q04DX003 (ip), vehicle: saline with Tween-80) was 100 % of control, the T/C (dose: 200.0 mg/kg/injection, schedule: Q04DX003 (ip), vehicle: saline with Tween-80) was 95 % of control and the T/C (dose: 400.0 mg/kg/injection, schedule: Q04DX003 (ip), vehicle: saline with Tween-80) was 95 % of control.
For `Cc1ccnc2n[nH]nc12`, the T/C (dose: 100.0 mg/kg/injection, schedule: Q04DX002 (ip), vehicle: water) was 109 % of control, the T/C (dose: 200.0 mg/kg/injection, schedule: Q04DX002 (ip), vehicle: water) was 107 % of control and the T/C (dose: 400.0 mg/kg/injection, schedule: Q04DX002 (ip), vehicle: water) was 103 % of control.
`NNc1nc(N2CCCCC2)ns1` was tested, and the T/C (dose: 2.5 mg/kg/injection, schedule: Q01DX009 (ip), vehicle: saline with Tween-80) was 98 % of control, the T/C (dose: 5.0 mg/kg/injection, schedule: Q01DX009 (ip), vehicle: saline with Tween-80) was 110 % of control and the T/C (dose: 10.0 mg/kg/injection, schedule: Q01DX009 (ip), vehicle: saline with Tween-80) was 120 % of control.
In the case of `NC(=O)Nc1cc2[nH]c(=O)oc2cc1Cl`, the T/C (dose: 12.5 mg/kg/injection, schedule: Q01DX005 (ip), vehicle: Klucel (hydroxypropylcellulose) (HPC)) is reported as 100 % of control, the T/C (dose: 25.0 mg/kg/injection, schedule: Q01DX005 (ip), vehicle: Klucel (hydroxypropylcellulose) (HPC)) is reported as 102 % of control and the T/C (dose: 50.0 mg/kg/injection, schedule: Q01DX005 (ip), vehicle: Klucel (hydroxypropylcellulose) (HPC)) is reported as 88 % of control. The T/C (dose: 100.0 mg/kg/injection, schedule: Q01DX005 (ip), vehicle: Klucel (hydroxypropylcellulose) (HPC)) was 92 % of control.
In the case of `COc1cc(OC)c2c(=O)c3cccc([N+](=O)[O-])c3n(C)c2c1`, the T/C (dose: 100.0 mg/kg/injection, schedule: Q01DX001 (ip), vehicle: saline with Tween-80) is reported as 104 % of control, the T/C (dose: 200.0 mg/kg/injection, schedule: Q01DX001 (ip), vehicle: saline with Tween-80) is reported as 100 % of control and the T/C (dose: 400.0 mg/kg/injection, schedule: Q01DX001 (ip), vehicle: saline with Tween-80) is reported as 98 % of control.
`C=C(C)CC1=C(C)C(=O)C(C)=C(C)C1=O` was tested, and the T/C (dose: 75.0 mg/kg/injection, schedule: Q04DX003 (ip), vehicle: Klucel (hydroxypropylcellulose) (HPC)) was 110 % of control, the T/C (dose: 150.0 mg/kg/injection, schedule: Q04DX003 (ip), vehicle: Klucel (hydroxypropylcellulose) (HPC)) was 105 % of control and the T/C (dose: 300.0 mg/kg/injection, schedule: Q04DX003 (ip), vehicle: Klucel (hydroxypropylcellulose) (HPC)) was 122 % of control.
For `CC(C)(C)/[N+]([O-])=C/C1(C2(/C=[N+](\[O-])C(C)(C)C)Cc3ccccc3C2=O)Cc2ccccc2C1=O` (configuration not stated), the T/C (dose: 60.0 mg/kg/injection, schedule: Q01DX005 (ip), vehicle: saline with Tween-80) was 101 % of control, the T/C (dose: 120.0 mg/kg/injection, schedule: Q01DX005 (ip), vehicle: saline with Tween-80) was 105 % of control and the T/C (dose: 240.0 mg/kg/injection, schedule: Q01DX005 (ip), vehicle: saline with Tween-80) was 103 % of control.
